Data on three compounds can be found in ChEMBL document CHEMBL1152560, “Substituted 2-arylbenzothiazoles as kinase inhibitors: hit-to-lead optimization” (Bioorg Med Chem, 2009).

The structures appear in SMILES notation.

Assay [1] deals with Serine/threonine-protein kinase PAK 1 (Homo sapiens) (UniProt Q13153). Description: Residual activity of PAK1 at 1 uM by microplate scintillation counting.
Assay [2] deals with Mitogen-activated protein kinase kinase kinase kinase 4 (Homo sapiens) (UniProt O95819). Description: Residual activity of MAP4K4 at 10 uM by microplate scintillation counting.
Chain of Mitogen-activated protein kinase kinase kinase kinase 4 (Homo sapiens) (O95819 2-1239 limits assumed): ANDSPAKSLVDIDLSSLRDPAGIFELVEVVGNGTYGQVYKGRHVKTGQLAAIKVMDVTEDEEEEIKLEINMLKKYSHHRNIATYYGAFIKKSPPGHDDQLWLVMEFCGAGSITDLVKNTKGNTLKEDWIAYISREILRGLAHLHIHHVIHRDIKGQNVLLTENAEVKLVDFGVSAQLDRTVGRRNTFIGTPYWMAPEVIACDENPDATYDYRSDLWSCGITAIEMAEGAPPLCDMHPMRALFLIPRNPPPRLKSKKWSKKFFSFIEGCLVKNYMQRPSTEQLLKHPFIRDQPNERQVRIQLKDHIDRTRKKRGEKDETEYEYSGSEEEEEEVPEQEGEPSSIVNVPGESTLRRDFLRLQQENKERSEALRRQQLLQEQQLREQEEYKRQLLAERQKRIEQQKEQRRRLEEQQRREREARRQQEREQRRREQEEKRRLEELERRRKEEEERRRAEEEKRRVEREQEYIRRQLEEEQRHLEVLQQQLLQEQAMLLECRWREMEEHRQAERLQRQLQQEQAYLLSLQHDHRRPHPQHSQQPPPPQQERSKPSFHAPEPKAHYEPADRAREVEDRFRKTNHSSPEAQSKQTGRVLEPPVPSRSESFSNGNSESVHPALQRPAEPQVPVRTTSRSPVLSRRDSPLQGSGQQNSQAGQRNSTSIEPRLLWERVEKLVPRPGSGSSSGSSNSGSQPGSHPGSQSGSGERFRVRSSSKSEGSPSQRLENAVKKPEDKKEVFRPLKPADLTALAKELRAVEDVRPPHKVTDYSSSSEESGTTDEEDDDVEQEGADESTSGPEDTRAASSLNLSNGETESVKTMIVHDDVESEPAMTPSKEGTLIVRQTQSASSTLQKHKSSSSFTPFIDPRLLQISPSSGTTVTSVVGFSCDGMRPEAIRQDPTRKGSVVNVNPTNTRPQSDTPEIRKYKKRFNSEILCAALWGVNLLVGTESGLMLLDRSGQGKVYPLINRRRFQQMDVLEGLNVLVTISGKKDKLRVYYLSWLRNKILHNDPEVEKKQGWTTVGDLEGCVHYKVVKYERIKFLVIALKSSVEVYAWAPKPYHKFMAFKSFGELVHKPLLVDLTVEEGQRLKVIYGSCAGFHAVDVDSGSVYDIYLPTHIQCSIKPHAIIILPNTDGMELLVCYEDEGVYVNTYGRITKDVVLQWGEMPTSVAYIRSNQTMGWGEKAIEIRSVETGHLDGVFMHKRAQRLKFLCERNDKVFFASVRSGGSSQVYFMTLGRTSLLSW
For assay [3], the target named is Casein kinase I isoform delta (Homo sapiens) (UniProt P48730). Nature of the assay: Residual activity of CK1delta at 10 uM by microplate scintillation counting.
The target of assay [4] is G protein-coupled receptor kinase 6 (Homo sapiens) (UniProt P43250). Nature of the assay: Residual activity of GRK6 at 1 uM by microplate scintillation counting.
Assay [5] addresses Mitogen-activated protein kinase kinase kinase kinase 4 (Homo sapiens) (UniProt O95819). Description: Residual activity of MAP4K4 at 0.1 uM by microplate scintillation counting.
Assay [6] concerns the target Eukaryotic translation initiation factor 2-alpha kinase 1 (Homo sapiens) (UniProt Q9BQI3). Nature of the assay: Residual activity of HRI at 0.1 uM by microplate scintillation counting.
In assay [7] the target is Myosin light chain kinase 2, skeletal/cardiac muscle (Homo sapiens) (UniProt Q9H1R3). Description: Residual activity of MYLK2 at 10 uM by microplate scintillation counting.
Chain of Myosin light chain kinase 2, skeletal/cardiac muscle (Homo sapiens) (Q9H1R3 whole entry): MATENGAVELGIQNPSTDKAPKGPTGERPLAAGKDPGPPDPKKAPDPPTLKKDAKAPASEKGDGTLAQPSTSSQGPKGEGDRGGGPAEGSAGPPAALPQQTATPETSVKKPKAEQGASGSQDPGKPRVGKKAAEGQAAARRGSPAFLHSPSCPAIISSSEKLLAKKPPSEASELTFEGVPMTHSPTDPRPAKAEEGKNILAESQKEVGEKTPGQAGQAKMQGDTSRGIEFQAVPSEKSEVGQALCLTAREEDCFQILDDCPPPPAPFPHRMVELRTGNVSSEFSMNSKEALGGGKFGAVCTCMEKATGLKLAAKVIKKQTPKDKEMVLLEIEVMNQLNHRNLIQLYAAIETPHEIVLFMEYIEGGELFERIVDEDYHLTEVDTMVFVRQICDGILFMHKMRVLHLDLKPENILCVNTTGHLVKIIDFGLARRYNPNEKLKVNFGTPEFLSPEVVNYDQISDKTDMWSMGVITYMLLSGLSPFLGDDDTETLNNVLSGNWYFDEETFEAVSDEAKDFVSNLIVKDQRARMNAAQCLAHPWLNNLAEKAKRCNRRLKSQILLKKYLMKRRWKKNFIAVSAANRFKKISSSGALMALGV
Assay [8] addresses T1, Myotonin-protein kinase (Homo sapiens) (UniProt Q09013).
T1 sequence (whole entry): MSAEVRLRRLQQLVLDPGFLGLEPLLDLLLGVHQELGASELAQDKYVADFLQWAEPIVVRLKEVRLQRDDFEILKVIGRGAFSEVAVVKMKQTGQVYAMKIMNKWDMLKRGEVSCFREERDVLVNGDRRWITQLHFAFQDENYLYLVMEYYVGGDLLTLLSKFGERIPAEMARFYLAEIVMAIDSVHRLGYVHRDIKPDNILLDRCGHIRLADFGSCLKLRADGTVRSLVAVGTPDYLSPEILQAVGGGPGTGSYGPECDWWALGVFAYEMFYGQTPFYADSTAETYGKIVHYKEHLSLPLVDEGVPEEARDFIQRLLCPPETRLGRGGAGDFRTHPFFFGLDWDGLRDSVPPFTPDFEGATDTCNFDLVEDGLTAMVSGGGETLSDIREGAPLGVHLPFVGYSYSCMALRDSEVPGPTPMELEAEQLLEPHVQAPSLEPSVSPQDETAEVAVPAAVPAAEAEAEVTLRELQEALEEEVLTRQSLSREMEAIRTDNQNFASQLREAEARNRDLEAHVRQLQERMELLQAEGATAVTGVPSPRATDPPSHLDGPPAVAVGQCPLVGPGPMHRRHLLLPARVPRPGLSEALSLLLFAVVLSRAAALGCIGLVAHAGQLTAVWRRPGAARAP
Description: Residual activity of DMPK at 0.1 uM by microplate scintillation counting.

For assay [9], the target named is Serine/threonine-protein kinase Nek6 (Homo sapiens) (UniProt Q9HC98). Nature of the assay: Residual activity of NEK6 at 1 uM by microplate scintillation counting.
Chain of Serine/threonine-protein kinase Nek6 (Homo sapiens) (Q9HC98 whole entry): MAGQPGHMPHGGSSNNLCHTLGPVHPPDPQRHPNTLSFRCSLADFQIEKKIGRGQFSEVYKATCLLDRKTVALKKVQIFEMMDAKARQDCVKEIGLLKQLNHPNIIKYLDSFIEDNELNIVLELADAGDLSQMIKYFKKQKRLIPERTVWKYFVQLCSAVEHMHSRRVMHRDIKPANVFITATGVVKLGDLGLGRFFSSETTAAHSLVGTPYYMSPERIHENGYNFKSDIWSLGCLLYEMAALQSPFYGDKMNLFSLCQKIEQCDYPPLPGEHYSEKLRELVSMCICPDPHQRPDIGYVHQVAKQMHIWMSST
The target of assay [10] is Activated CDC42 kinase 1 (Homo sapiens) (UniProt Q07912). Nature of the assay: Residual activity of ACK1 at 0.1 uM by microplate scintillation counting.
In assay [11] the target is T2, Testis-specific serine/threonine-protein kinase 1 (Homo sapiens) (UniProt Q9BXA7).
T2 sequence (whole entry): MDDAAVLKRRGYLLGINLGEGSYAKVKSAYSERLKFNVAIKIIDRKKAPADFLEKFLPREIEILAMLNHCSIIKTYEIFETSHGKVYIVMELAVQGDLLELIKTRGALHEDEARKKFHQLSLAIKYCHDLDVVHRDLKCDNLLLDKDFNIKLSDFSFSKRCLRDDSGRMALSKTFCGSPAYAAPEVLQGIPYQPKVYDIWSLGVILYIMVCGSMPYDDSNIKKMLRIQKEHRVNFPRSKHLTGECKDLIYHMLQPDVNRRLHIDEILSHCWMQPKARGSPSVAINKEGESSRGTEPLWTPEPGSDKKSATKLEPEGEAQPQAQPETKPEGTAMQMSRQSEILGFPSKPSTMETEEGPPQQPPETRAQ
Description: Residual activity of TSSK1 at 1 uM by microplate scintillation counting.

Assay [12] concerns the target Serine/threonine-protein kinase PLK2 (Homo sapiens) (UniProt Q9NYY3). Nature of the assay: Residual activity of SNK at 0.1 uM by microplate scintillation counting.
For assay [13], the target named is Proto-oncogene tyrosine-protein kinase receptor Ret (Homo sapiens) (UniProt P07949). Description: Residual activity of RET at 0.1 uM by microplate scintillation counting.
The target in assay [14] is T3, Serine/threonine-protein kinase Nek2 (Homo sapiens) (UniProt P51955).
T3 sequence (whole entry): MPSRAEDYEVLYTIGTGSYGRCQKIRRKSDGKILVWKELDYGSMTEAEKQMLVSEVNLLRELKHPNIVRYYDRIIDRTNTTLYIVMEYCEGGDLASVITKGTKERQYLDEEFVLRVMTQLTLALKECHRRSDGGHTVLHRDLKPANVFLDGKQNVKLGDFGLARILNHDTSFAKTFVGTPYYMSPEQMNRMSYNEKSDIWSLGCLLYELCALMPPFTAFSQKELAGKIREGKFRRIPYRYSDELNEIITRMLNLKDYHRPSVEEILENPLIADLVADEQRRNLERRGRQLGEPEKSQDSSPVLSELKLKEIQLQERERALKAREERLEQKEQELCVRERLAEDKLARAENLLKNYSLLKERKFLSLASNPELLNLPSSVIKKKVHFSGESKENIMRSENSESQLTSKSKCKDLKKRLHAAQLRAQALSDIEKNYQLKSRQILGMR
Nature of the assay: Residual activity of NEK2 at 10 uM by microplate scintillation counting.

Assay [15] concerns the target Serine/threonine-protein kinase PAK 5 (Homo sapiens) (UniProt Q9P286). Nature of the assay: Residual activity of PAK7 at 10 uM by microplate scintillation counting.
In assay [16] the target is Fibroblast growth factor receptor 3 (Homo sapiens) (UniProt P22607). Nature of the assay: Residual activity of FGFR3 at 1 uM by microplate scintillation counting.
Assay [17] addresses Ribosomal protein S6 kinase alpha-2 (Homo sapiens) (UniProt Q15349). Nature of the assay: Residual activity of RPS6KA2 at 10 uM by microplate scintillation counting.

Chain of Eukaryotic translation initiation factor 2-alpha kinase 1 (Homo sapiens) (Q9BQI3 whole entry): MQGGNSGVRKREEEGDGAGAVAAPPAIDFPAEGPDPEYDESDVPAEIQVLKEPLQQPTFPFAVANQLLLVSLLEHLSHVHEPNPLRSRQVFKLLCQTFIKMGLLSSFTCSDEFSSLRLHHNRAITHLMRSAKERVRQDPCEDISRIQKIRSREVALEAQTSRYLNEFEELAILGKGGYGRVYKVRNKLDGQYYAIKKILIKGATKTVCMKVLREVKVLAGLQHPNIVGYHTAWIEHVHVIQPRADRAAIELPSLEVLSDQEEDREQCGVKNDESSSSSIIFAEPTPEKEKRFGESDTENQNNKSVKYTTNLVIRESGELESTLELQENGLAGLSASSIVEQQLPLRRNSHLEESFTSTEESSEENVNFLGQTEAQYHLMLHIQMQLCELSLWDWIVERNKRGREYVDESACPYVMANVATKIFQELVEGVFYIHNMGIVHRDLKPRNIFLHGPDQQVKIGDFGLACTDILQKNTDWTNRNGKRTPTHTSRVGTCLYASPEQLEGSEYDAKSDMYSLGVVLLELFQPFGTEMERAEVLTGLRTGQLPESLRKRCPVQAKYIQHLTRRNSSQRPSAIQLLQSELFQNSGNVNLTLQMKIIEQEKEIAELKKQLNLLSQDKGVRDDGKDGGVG
Chain of Ribosomal protein S6 kinase alpha-2 (Homo sapiens) (Q15349 whole entry): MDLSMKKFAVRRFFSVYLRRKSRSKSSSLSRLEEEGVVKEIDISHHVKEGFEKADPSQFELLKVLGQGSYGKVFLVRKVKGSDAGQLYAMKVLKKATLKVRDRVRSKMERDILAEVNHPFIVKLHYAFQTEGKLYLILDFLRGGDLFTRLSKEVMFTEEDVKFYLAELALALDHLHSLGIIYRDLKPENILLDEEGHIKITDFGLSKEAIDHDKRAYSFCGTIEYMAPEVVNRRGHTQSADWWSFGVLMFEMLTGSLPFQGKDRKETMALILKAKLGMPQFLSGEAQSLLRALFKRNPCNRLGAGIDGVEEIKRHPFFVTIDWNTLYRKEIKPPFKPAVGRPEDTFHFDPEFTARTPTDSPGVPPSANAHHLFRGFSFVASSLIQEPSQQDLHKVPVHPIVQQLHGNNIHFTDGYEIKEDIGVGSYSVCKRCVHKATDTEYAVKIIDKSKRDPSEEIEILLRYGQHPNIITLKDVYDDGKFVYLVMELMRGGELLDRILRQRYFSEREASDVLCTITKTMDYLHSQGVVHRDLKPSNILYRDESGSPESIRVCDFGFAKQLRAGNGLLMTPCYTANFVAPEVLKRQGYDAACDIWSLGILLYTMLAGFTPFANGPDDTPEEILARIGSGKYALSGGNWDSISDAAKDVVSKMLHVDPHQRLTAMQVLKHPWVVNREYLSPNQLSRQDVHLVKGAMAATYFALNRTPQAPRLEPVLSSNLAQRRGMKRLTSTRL
Chain of Serine/threonine-protein kinase PLK2 (Homo sapiens) (Q9NYY3 whole entry, looked up): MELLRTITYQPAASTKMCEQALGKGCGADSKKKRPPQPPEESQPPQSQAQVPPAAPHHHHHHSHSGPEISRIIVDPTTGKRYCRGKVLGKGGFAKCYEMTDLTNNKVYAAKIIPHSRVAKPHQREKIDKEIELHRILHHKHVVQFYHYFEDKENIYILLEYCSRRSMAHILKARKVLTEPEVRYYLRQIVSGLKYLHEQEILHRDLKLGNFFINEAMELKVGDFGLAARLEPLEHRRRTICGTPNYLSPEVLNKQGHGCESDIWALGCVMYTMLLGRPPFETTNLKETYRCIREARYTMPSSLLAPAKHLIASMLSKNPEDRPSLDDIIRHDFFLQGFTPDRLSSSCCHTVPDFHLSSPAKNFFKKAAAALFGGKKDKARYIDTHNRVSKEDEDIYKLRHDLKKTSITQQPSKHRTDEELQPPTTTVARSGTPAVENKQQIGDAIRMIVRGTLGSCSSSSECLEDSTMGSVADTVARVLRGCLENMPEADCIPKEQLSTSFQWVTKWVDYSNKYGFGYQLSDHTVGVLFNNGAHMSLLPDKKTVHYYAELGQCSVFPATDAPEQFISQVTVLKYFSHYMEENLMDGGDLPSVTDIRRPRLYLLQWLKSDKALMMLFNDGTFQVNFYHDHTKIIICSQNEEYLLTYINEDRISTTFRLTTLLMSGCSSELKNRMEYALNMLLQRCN
Chain of Serine/threonine-protein kinase PAK 5 (Homo sapiens) (Q9P286 whole entry, looked up): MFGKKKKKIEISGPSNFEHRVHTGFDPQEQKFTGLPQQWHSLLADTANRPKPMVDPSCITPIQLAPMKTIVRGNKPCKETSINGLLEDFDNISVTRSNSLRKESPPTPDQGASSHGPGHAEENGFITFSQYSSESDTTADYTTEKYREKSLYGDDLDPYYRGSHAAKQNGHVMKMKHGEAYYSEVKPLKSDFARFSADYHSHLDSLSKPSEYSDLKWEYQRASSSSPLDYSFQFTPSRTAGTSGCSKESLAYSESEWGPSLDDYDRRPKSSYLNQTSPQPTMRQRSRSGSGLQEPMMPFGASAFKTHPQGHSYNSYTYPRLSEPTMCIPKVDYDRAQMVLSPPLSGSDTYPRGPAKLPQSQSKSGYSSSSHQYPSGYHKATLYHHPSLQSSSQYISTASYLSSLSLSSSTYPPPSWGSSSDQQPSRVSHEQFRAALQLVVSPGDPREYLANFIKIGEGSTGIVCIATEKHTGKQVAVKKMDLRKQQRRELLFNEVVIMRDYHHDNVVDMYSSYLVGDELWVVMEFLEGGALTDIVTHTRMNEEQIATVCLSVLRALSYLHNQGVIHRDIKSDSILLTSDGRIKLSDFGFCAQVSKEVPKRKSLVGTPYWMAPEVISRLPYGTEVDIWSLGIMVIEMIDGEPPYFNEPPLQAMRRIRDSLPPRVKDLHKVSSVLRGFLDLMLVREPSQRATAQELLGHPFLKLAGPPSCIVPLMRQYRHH

For `COc1cc2c(Oc3ccc(-c4nc5ccccc5s4)cc3)ncnc2cc1OCCCN1CCCC1`, the residual activity was found to be 101% in [1]; 76% in assay [2]; 133% in assay [3]; 90% in assay [4]; 86% in assay [5]; 92% in assay [6]. The residual activity in [7] was found to be 82%; in assay [8] it was 110%; in assay [9], 84%; in [10], 105%; in assay [11], 40%; in assay [12], 108%. In addition, the residual activity is 97% in [13]; 34% in [14]; 84% in [15]; 98% in assay [16]; 81% in assay [17].
For `COc1cc2c(Oc3ccc(-c4nc5ccccc5s4)cc3F)ncnc2cc1OCCCN1CCN(C)CC1`, the residual activity was 91% in assay [1]; 96% in [2]; 149% in [3]; 93% in assay [4]; 83% in assay [5]; 98% in assay [6]. The residual activity in assay [7] amounted to 117%; in assay [8], 102%; in [9] it was 102%; in assay [10] it was 87%; in assay [11], 73%; in assay [12], 89%. For the same compound, the residual activity in assay [13] came to 101%; in assay [14] it was 38%; in [15] it was 49%; in assay [16], 88%; in assay [17], 39%.
For the compound `COc1cc2c(Oc3ccc(-c4nc5ccccc5s4)cc3)ncnc2cc1OCCCN1CCN(C)CC1`, the residual activity came out at 104% in assay [1]; 101% in [2]; 156% in [3]; 80% in [4]; 85% in assay [5]; 113% in [6]. The residual activity amounted to 115% in [7]; 128% in assay [8]; 96% in [9]; 96% in assay [10]; 55% in [11]; 89% in assay [12]. For the same compound, the residual activity in assay [13] is 92%; in assay [14], 54%; in assay [15], 45%; in assay [16] it was 90%; in [17], 44%.
